Assay results taken from patent publication US8492570B2, “2-substituted estra-1,3,5(10)-triene-3-yl sulfamate with an anti-tumor action” (Sterix Limited, priority 2003, dated 2013).

What was measured:
[1] = biological target: T1, microtubular protein (tubulin) purified from pig brains (Sus scrofa, UniProt P02550+P02554); test: Inhibition of tubulin polymerization (turbidimetry at 340 nm); assay type: biochemical; conditions: pig brain microtubular protein 1 mg/ml, 0.25 mmol GTP, 37° C.
T1 construct: microtubular protein was purified from pig brains via cyclic assembling/disassembling; from tissue; host or cells: pig brain
Protocol: The in-vitro testing of the tubulin polymerization influence was performed as follows:
The buffer system used had the following composition: 20 mmol of PIPES (1,4-piperazine-diethane-sulfonic acid, pKa 6.8), 80 mmol of NaCl, 0.5 mmol of MgCl2, 1 mmol of EGTA (ethylene glycol-bis-(2-aminoethylene)-tetraacetic acid).
For active ingredient testing, protein concentrations of 1 mg/ml (about 10^−5 mmol of tubulin) were used. […] The assembling of microtubuli was carried out in the presence of 0.25 mmol of GTP and heating the samples to 37° C.
The microtubulus formation was examined by means of turbidimetry at a wavelength of 340 nm.
Testing of the active ingredients was carried out by their addition at the beginning of the assembling or in the state of equilibrium. Deviations of turbidity curves from the control characterize its activity. To monitor action and to evaluate the measured turbidity values, a transmission electron microscopic study (CEM 902 A, Zeiss/Oberkochen) of the assemblates was always performed after negative staining with 1% aqueous uranyl acetate.

[2] = tested on: DU145 human prostate tumor cells; test: Inhibition of cell proliferation, crystal violet staining; assay type: cell-based; conditions: DU145, 4 days incubation
Protocol: (§1) Cell cultures of the following cell lines were prepared in 96-well microtiter plates: • 1. MaTu/ADR multidrug-resistant human breast tumor cells (Epo GmbH Berlin), 5000 cells/well. • 2. HCT116 human colon tumor cells (ATCC CCL-247), 3000 cells/well. • 3. NCl-H460 human non-small-cell lung cancer cells (ATCC HTB-177), 3000 cells/well. • 4. DU145 human prostate tumor cells (ATCC HTB-81), 5000 cells/well. • 5. HMVEC human primary dermal microvascular endothelial cells, 7500 cells/well.
(§2) After 24 hours of incubation in a cell culture incubator at 37° C., the cells of a microtiter plate were stained with crystal violet (reference plate), while the cells in the test plates were incubated for 4 days with the test substances in the concentrations […], as well as with the DMSO solvent by itself (solvent control). The cell proliferation was determined by staining cells with crystal violet. The extinction of the crystal violet was determined by photometry at 595 nm. The percentage of the change in the cell number in the test plates was determined after the extinction values were normalized to the reference plate (0%) and to the solvent control (100%). The semi-maximal inhibition of the cell growth (IC50) was determined as the substance concentration, in which 50% of the cell number of the solvent controls were present.

[3] = tested on: HCT116 human colon tumor cells; test: as above; assay type: cell-based; conditions: HCT116, 4 days incubation
Protocol: as §1, §2

[4] = tested on: HMVEC human primary dermal microvascular endothelial cells; test: as above; assay type: cell-based; conditions: 4 days incubation
Protocol: as §1, §2

[5] = tested on: MaTu/ADR multidrug-resistant human breast tumor cells; test: as above; assay type: cell-based; conditions: 4 days incubation
Protocol: as §1, §2

[6] = tested on: NCl-H460 human non-small-cell lung cancer cells; test: as above; assay type: cell-based; conditions: NCl-H460, 4 days incubation
Protocol: as §1, §2

T1 sequence (P02550 whole entry): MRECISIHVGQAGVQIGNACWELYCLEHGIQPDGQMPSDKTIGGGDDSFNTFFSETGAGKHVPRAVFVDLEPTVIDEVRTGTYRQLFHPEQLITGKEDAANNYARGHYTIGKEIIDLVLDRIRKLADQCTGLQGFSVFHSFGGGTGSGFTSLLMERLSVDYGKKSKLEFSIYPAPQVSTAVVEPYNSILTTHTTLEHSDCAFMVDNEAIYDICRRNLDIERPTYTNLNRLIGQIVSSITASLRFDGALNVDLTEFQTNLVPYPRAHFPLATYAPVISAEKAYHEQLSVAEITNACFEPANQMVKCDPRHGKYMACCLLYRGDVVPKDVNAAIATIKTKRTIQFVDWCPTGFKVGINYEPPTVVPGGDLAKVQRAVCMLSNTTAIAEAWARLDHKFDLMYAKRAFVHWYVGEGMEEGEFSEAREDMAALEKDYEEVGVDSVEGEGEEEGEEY
T1 sequence (P02554 whole entry): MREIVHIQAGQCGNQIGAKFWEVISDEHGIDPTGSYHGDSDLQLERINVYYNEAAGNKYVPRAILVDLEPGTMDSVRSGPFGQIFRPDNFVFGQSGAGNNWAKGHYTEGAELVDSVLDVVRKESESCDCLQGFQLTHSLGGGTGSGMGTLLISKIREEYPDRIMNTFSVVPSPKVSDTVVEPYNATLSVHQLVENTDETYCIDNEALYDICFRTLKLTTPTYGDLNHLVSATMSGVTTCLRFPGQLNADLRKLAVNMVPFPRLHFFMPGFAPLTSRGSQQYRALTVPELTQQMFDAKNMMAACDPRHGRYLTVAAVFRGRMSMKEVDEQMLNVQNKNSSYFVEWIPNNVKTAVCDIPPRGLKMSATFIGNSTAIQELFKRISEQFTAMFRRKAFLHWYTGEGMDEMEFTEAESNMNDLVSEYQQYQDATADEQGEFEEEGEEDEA

SMILES	IC50 [1] [nM]	IC50 ([2]; Homo sapiens, DU-145, 96 h) [nM]	IC50 ([3]; Homo sapiens, HCT-116, 96 h) [nM]	IC50 ([4]; Homo sapiens, 96 h) [nM]	IC50 ([5]; Homo sapiens, 96 h) [nM]	IC50 ([6]; Homo sapiens, 96 h) [nM]	IC50 [2] [nM]	IC50 [3] [nM]	IC50 [4] [nM]	IC50 [5] [nM]	IC50 [6] [nM]
COc1cc2c(cc1OS(N)(=O)=O)CC[C@@H]1[C@@H]2CC[C@]2(C)[C@@H](C)CC[C@@H]12 [(5), 2-methoxy-17β-methyl-estra-1,3,5(10)-trien-3-yl sulfamate]	1300	–	–	–	–	–	–	–	–	–	–
COc1cc2c(cc1OS(N)(=O)=O)CC[C@@H]1[C@@H]2CC[C@]2(C)C(=C(F)F)CC[C@@H]12 [(8), 17(20)-Difluoromethylene-2-methoxy-estra-1,3,5(10)-trien-3-yl Sulfamate]	1100	500	300	200	170	220	–	–	–	–	–
COc1cc2c(cc1OS(N)(=O)=O)CC[C@@H]1[C@@H]2CC[C@]2(C)CCC[C@@H]12 [(1), 2-Methoxy-estra-1,3,5(10)-trien-3-yl Sulfamate]	670	500	400	< 100	110	400	–	–	–	–	–
COc1cc2c(cc1OS(N)(=O)=O)CC[C@@H]1[C@@H]2CC[C@]2(C)[C@@H](C(F)F)CC[C@@H]12 [(9), 17β-Difluoromethyl-2-methoxy-estra-1,3,5(10)-trien-3-yl Sulfamate]	1500	400	300	200	110	220	–	–	–	–	–
COc1cc2c(cc1OS(N)(=O)=O)CC[C@@H]1[C@@H]2CC[C@]2(C)[C@@H](CO)CC[C@@H]12 [(11), 17β-Hydroxymethyl-2-methoxy-estra-1,3,5(10)-trien-3-yl Sulfamate]	–	200	180	< 100	< 100	180	–	–	–	–	–
CCc1cc2c(cc1OS(N)(=O)=O)CC[C@@H]1[C@@H]2CC[C@]2(C)[C@@H](OC)CC[C@@H]12 [(3), 2-Ethyl-17β-methoxy-estra-1,3,5(10)-trien-3-yl sulfamate]	1400	180	180	160	120	180	–	–	–	–	–
COc1cc2c(cc1O)CC[C@@H]1[C@@H]2CC[C@]2(C)[C@@H](O)CC[C@@H]12 [2-Methoxyestradiol, reference compound]	2700	–	–	–	–	–	1900	1100	2200	200	1800
C=C1CC[C@H]2[C@@H]3CC(=NO)c4cc(OS(N)(=O)=O)c(OC)cc4[C@H]3CC[C@]12C [(7), 2-Methoxy-17(20)-methylene-6-oximino-estra-1,3,5(10)-trien-3-yl Sulfamate]	–	–	–	–	–	–	550	500	130	130	500
C=C1CC[C@H]2[C@@H]3CCc4cc(OS(N)(=O)=O)c(OC)cc4[C@H]3CC[C@]12C [(4), 2-Methoxy-17(20)-methylene-estra-1,3,5(10)-trien-3-yl Sulfamate]	1400	180	180	160	< 100	180	–	–	–	–	–
CC(=O)O[C@H]1C(=O)[C@@]2(C)[C@H]([C@H](OC(=O)c3ccccc3)[C@]3(O)C[C@H](OC(=O)[C@H](O)[C@@H](NC(=O)c4ccccc4)c4ccccc4)C(C)=C1C3(C)C)[C@]1(OC(C)=O)CO[C@@H]1C[C@@H]2O [Taxol, reference compound]	–	4	4	4	400	4	–	–	–	–	–
